Test results taken from ChEMBL document CHEMBL5506048, “Modular Biomimetic Strategy Enables Discovery and SAR Exploration of Oxime Macrocycles as Influenza A Virus (H1N1) Inhibitors” (J Med Chem, 2024).
Activity calls are given as the source filed them. The calls are words filed in the database; no cut-off is given here.

How the values were obtained:
Calu-3 = test: Cytotoxicity against human Calu-3 cells assessed as cell viability measured after 3 days by CellTiter-Lumi Steady Plus Luminescent Cell Viability Assay Kit; type: functional; settings: Calu-3, 72 h, time 3 day
Influenza A virus [1] = test: Antiviral activity against Influenza virus H1N1 A/Puerto Rico/8/34 (A/PR/8/34) infected in human Calu-3 cells assessed as viral RNA measured after 3 days by one-time real time PCR assay; type: functional, organism-based
[2] = Selectivity index, ratio of CC50 for human Calu-3 cells to EC50 for antiviral activity against Influenza virus HINI A/Puerto Rico/8/34 (A/PR/8/34); type: toxicity; settings: read-out: Selectivity Index
Influenza A virus [3] = test: Antiviral activity against Influenza virus H1N1 A/Puerto Rico/8/34 (A/PR/8/34) infected in human Calu-3 cells assessed as viral RNA at CC50 concentration for human Calu-3 cells measured after 3 days by one-time real time PCR assay; type: functional, organism-based; settings: time 3.0 day
Influenza A virus [4] = test: Antiviral activity against Influenza virus H3N2 (A/Hong Kong/8/68) infected in human Calu-3 cells assessed as viral RNA measured after 3 days by one-time real time PCR assay; type: functional, organism-based; settings: Calu-3, 72 h
Influenza A virus [5] = test: Antiviral activity against HIV pseudotyped H5N1 HA infected in human 293T cells assessed as inhibition of viral entry into cells by measuring intensity of chemiluminescence measured after 3 days by Bright-Glo luciferase assay; type: functional, organism-based; settings: HEK293T, time 3.0 day
Influenza B virus = test: Antiviral activity against Influenza virus Flu B (B/Taiwan/2/62) infected in human Calu-3 cells assessed as viral RNA measured after 3 days by one-time real time PCR assay; type: functional, organism-based; settings: B/Taiwan/2/62, Calu-3, 72 h
Ebolavirus = test: Antiviral activity against HIV pseudotyped EBOV GP infected in human 293T cells assessed as inhibition of viral entry into cells by measuring intensity of chemiluminescence measured after 3 days by Bright-Glo luciferase assay; type: functional, organism-based; settings: HEK293T, time 3.0 day
Influenza A virus [6] = test: Antiviral activity against HIV pseudotyped H1N1 HA infected in human 293T cells assessed as inhibition of viral entry into cells by measuring intensity of chemiluminescence measured after 3 days by Bright-Glo luciferase assay; type: functional, organism-based; settings: HEK293T, time 3.0 day
Influenza A virus [7] = test: Antiviral activity against Influenza virus HIN1 (A/California/07/2009 pdm09) infected in human Calu-3 cells assessed as viral RNA measured after 3 days by one-time real time PCR assay; type: functional, organism-based; settings: Calu-3, 72 h

## C=C1Cc2cc(C(F)(F)F)ccc2C(=O)NCC(C)(C)/C(=N/OC)CCCCOC1=O
Calu-3
  CC50: > 100 µM
Influenza A virus [1]; Calu-3, 72 h
  EC50: 2300 nM
Influenza A virus [1]; Calu-3, 72 h, time 3 day
  EC90: 46500 nM
[2]
  selectivity ratio: > 43

## C=C1Cc2cc(C(F)(F)F)ccc2C(=O)NCC(C)/C(=N/OC)CCCOC1=O (stereo unspecified)
Calu-3
  CC50: > 100 µM
Influenza A virus [3]
  Activity: inactive

## C=C1Cc2cc(C(F)(F)F)ccc2C(=O)NCC(C)(C)/C(=N/OC(C)C)CCC(C)OC1=O (stereo unspecified)
Calu-3
  CC50: 36.6 µM
Influenza A virus [3]
  Activity: inactive

## C=C1Cc2cc(C(F)(F)F)ccc2C(=O)NCC(C)(C)/C(=N/OC)CCCOC1=O
Calu-3
  CC50: > 100 µM
Influenza A virus [1]; Calu-3, 72 h
  EC50: 441 nM
Influenza A virus [1]; Calu-3, 72 h, time 3 day
  EC90: 560 nM
[2]
  selectivity ratio: > 226

## C=C1Cc2cc(C(F)(F)F)ccc2C(=O)NCC(C)(C)/C(=N/OC)CC[C@@H](C)OC1=O
Calu-3
  CC50: 26.5 µM
Influenza A virus [1]; Calu-3, 72 h
  EC50: 1470 nM
Influenza A virus [1]; Calu-3, 72 h, time 3 day
  EC90: > 100000 nM
[2]
  selectivity ratio: 18

## C=C1Cc2cc(C(F)(F)F)ccc2C(=O)NCC(C)(C)/C(=N/OC)CCCCCOC1=O
Calu-3
  CC50: 40.7 µM
Influenza A virus [3]
  Activity: inactive

## C=C1Cc2ccccc2C(=O)NCC(C)(C)/C(=N/OC)CCCOC1=O
Calu-3
  CC50: > 100 µM
Influenza A virus [1]; Calu-3, 72 h
  EC50: 985 nM
Influenza A virus [1]; Calu-3, 72 h, time 3 day
  EC90: 18300 nM
[2]
  selectivity ratio: > 101

## C=C1Cc2cc(C(F)(F)F)ccc2C(=O)NCC(C)(C)/C(=N/OC)CCC(c2ccc(F)cc2)OC1=O (stereo unspecified)
Calu-3
  CC50: 27.3 µM
Influenza A virus [3]
  Activity: inactive

## C=C1Cc2cc(C(F)(F)F)ccc2C(=O)NCC(C)(C)/C(=N/OCC(F)(F)F)CCCOC1=O
Calu-3
  CC50: > 100 µM
Influenza A virus [1]; Calu-3, 72 h
  EC50: 428 nM
Influenza A virus [1]; Calu-3, 72 h, time 3 day
  EC90: 1870 nM
[2]
  selectivity ratio: > 233

## C=C1Cc2cc(C(F)(F)F)ccc2C(=O)NCC(C)(C)/C(=N/OC)CCC(C2CC2)OC1=O (stereo unspecified)
Calu-3
  CC50: 42.9 µM
Influenza A virus [3]
  Activity: inactive

## C=C1Cc2cc(C(F)(F)F)ccc2C(=O)NCC(C)(C)/C(=N/OCC23C[C@H]4C[C@@H](C2)C[C@@H](C3)C4)CCC(C)OC1=O (stereo partly specified)
Calu-3
  CC50: 47 µM
Influenza A virus [3]
  Activity: inactive

## C=C1Cc2cc(C(F)(F)F)ccc2C(=O)NCC(C)(C)/C(=N/OC)CCOC1=O
Calu-3
  CC50: > 100 µM
Influenza A virus [3]
  Activity: inactive

## C=C1Cc2cc(C(F)(F)F)ccc2C(=O)NCC(C)(C)C(=O)CCCCOC1=O
Calu-3
  CC50: > 100 µM
Influenza A virus [3]
  Activity: inactive

## CO/N=C1\CCCCOC(=O)/C(=C/c2ccc(N3CCOCC3)cc2)Cc2cc(C(F)(F)F)ccc2C(=O)NCC1(C)C
Calu-3
  CC50: > 100 µM
Influenza A virus [3]
  Activity: inactive

## C=C1Cc2cc(C(F)(F)F)ccc2C(=O)NCC2(CCC2)/C(=N/OC)CC[C@H](C)OC1=O
Calu-3
  CC50: 67.3 µM
Influenza A virus [1]; Calu-3, 72 h
  EC50: 220 nM
Influenza A virus [1]; Calu-3, 72 h, time 3 day
  EC90: 680 nM
[2]
  selectivity ratio: 305

## C=C1Cc2cc(OC)ccc2C(=O)NCC(C)(C)/C(=N/OC)CCCOC1=O
Calu-3
  CC50: > 100 µM
Influenza A virus [1]; Calu-3, 72 h
  EC50: 1050 nM
Influenza A virus [1]; Calu-3, 72 h, time 3 day
  EC90: 3550 nM
[2]
  selectivity ratio: > 95

## C=C1Cc2cc(C(F)(F)F)ccc2C(=O)NCC(C)(C)/C(=N/OC)CCCCCCOC1=O
Calu-3
  CC50: 15.6 µM
Influenza A virus [3]
  Activity: inactive

## C=C1Cc2cc(C(F)(F)F)ccc2C(=O)NCC(C)(C)/C(=N/OC)CCC(CO)OC1=O (stereo unspecified)
Calu-3
  CC50: > 100 µM
Influenza A virus [1]; Calu-3, 72 h
  EC50: 20200 nM
Influenza A virus [1]; Calu-3, 72 h, time 3 day
  EC90: > 100000 nM
[2]
  selectivity ratio: > 4

## C=C1Cc2cc(C(F)(F)F)ccc2C(=O)NCC(C)(C)/C(=N/OC)CCC(CN2CCOCC2)OC1=O (stereo unspecified)
Calu-3
  CC50: > 100 µM
Influenza A virus [3]
  Activity: inactive

## C=C1Cc2cc(C(F)(F)F)ccc2C(=O)NCC(C)(C)/C(=N/OC)CCC(CC)OC1=O (stereo unspecified)
Calu-3
  CC50: 42.4 µM
Influenza A virus [3]
  Activity: inactive

## C=C1Cc2cc(N3CCOCC3)ccc2C(=O)NCC(C)(C)/C(=N/OC)CCCOC1=O
Calu-3
  CC50: > 100 µM
Influenza A virus [1]; Calu-3, 72 h
  EC50: 17900 nM
Influenza A virus [1]; time 3.0 day
  EC90: inactive
[2]
  selectivity ratio: > 8

## C=C(Cc1cc(C(F)(F)F)ccc1C(=O)NCC(C)(C)/C(CCCO)=N/OC)C(=O)O
Calu-3
  CC50: > 100 µM
Influenza A virus [3]
  Activity: inactive

## C=C1Cc2cc(C(F)(F)F)ccc2C(=O)NCC(C)(C)/C(=N/OC)CCC(CNCCO)OC1=O (stereo unspecified)
Calu-3
  CC50: > 100 µM
Influenza A virus [3]
  Activity: inactive

## C=C1Cc2cc(F)ccc2C(=O)NCC(C)(C)/C(=N/OC)CCCOC1=O
Calu-3
  CC50: > 100 µM
Influenza A virus [1]; Calu-3, 72 h
  EC50: 1650 nM
Influenza A virus [1]; Calu-3, 72 h, time 3 day
  EC90: 1980 nM
[2]
  selectivity ratio: > 60

## CO/N=C1\CCCCOC(=O)/C(=C/c2ccc(F)cc2)Cc2cc(C(F)(F)F)ccc2C(=O)NCC1(C)C
Calu-3
  CC50: > 100 µM
Influenza A virus [3]
  Activity: inactive

## C=C1Cc2cc(C(F)(F)F)ccc2C(=O)NCC(C)(C)/C(=N/OC)CCC(C(=O)O)OC1=O (stereo unspecified)
Calu-3
  CC50: > 100 µM
Influenza A virus [3]
  Activity: inactive

## C=C1Cc2cc(C(F)(F)F)ccc2C(=O)NCC(C)(C)/C(=N/OC)CC[C@H](C)OC1=O
Influenza A virus [4]
  EC50: > 50 µM
Influenza A virus [5]
  Activity: inactive
Calu-3
  CC50: 90.4 µM
Influenza B virus
  EC50: > 50 µM
Ebolavirus
  Activity: inactive
Influenza A virus [1]; Calu-3, 72 h
  EC50: 13 nM
Influenza A virus [1]; Calu-3, 72 h, time 3 day
  EC90: 235 nM
[2]
  selectivity ratio: 6950
Influenza A virus [6]
  Activity: Dose-Dependent Effect
Influenza A virus [7]
  EC50: 48 nM

## C=C1Cc2ccc(C(F)(F)F)cc2C(=O)NCC(C)(C)/C(=N/OC)CCCOC1=O
Calu-3
  CC50: 73.6 µM
Influenza A virus [1]; Calu-3, 72 h
  EC50: 264 nM
Influenza A virus [1]; Calu-3, 72 h, time 3 day
  EC90: 1050 nM
[2]
  selectivity ratio: 278

## C=C1Cc2cc(C(F)(F)F)ccc2C(=O)NCC(C)(C)/C(=N/O)CCCCOC1=O
Calu-3
  CC50: > 100 µM
Influenza A virus [1]; Calu-3, 72 h
  EC50: 57300 nM
Influenza A virus [1]; time 3.0 day
  EC90: inactive
[2]
  selectivity ratio: > 1.7

## C=C1Cc2cc(NC(C)=O)ccc2C(=O)NCC(C)(C)/C(=N/OC)CCCOC1=O
Calu-3
  CC50: > 100 µM
Influenza A virus [1]; Calu-3, 72 h
  EC50: 2690 nM
Influenza A virus [1]; Calu-3, 72 h, time 3 day
  EC90: 5060 nM
[2]
  selectivity ratio: > 37

## CO/N=C1\CCCOC(=O)C(C)Cc2cc(C(F)(F)F)ccc2C(=O)NCC1(C)C (stereo unspecified)
Calu-3
  CC50: > 100 µM
Influenza A virus [1]; Calu-3, 72 h
  EC50: 2740 nM
Influenza A virus [1]; Calu-3, 72 h, time 3 day
  EC90: > 100000 nM
[2]
  selectivity ratio: > 36

## CCC(CC)Oc1ccc(/C=C2\Cc3cc(C(F)(F)F)ccc3C(=O)NCC(C)(C)/C(=N/OC)CCCCOC2=O)cc1
Calu-3
  CC50: > 100 µM
Influenza A virus [3]
  Activity: inactive

## C=C1Cc2cc(C(F)(F)F)ccc2C(=O)NCC(C)(C)/C(=N/OC(CC)CC)CCC(C)OC1=O (stereo unspecified)
Calu-3
  CC50: 31.9 µM
Influenza A virus [3]
  Activity: inactive

## C=C1Cc2cc(C(F)(F)F)ccc2C(=O)NCC(C)(C)/C(=N/OC)CCC(C)OC1=O (stereo unspecified)
Calu-3
  CC50: > 100 µM
Influenza A virus [1]; Calu-3, 72 h
  EC50: 96 nM
Influenza A virus [1]; Calu-3, 72 h, time 3 day
  EC90: 823 nM
[2]
  selectivity ratio: > 1040

## C=C1Cc2cc(C(F)(F)F)ccc2C(=O)NCC2(CC2)/C(=N/OC)CCCOC1=O
Calu-3
  CC50: > 100 µM
Influenza A virus [1]; Calu-3, 72 h
  EC50: 247 nM
Influenza A virus [1]; Calu-3, 72 h, time 3 day
  EC90: 1230 nM
[2]
  selectivity ratio: > 404

## C=C1Cc2cc(C(F)(F)F)ccc2C(=O)NCC(C)(C)/C(=N/OC)CCCNC1=O
Calu-3
  CC50: > 100 µM
Influenza A virus [1]; Calu-3, 72 h
  EC50: 657 nM
Influenza A virus [1]; Calu-3, 72 h, time 3 day
  EC90: 1390 nM
[2]
  selectivity ratio: > 152

## CO/N=C1\CCCCOC(=O)C(CSCCC(=O)O)Cc2cc(C(F)(F)F)ccc2C(=O)NCC1(C)C (stereo unspecified)
Calu-3
  CC50: > 100 µM
Influenza A virus [3]
  Activity: inactive
